# Test results from US7879836B2, “Pharmaceutical composition comprising a 1-(3-chlorophenyl)-3-alkylpiperazine for treating appetite disorder” (Aziende Chimiche Riunite Angelini Francesco A.C.R.A.F. …, priority 2005, dated 2011).
# How the values were obtained:
# food-deprived rats = assay: Hypophagia-inducing activity in food-deprived rats; assay type: in vivo, rat; details: 10 mg/kg orally; rats deprived of food for 24 h; one hour after treatment; FIGS. 2A, 2B
# From the text: Verification of the consumption of food in food-deprived rats represents a condition that reproduces the complex system regulating the sensation of hunger and the intake of food in humans. Fasting in fact introduces many physiological changes that can lead to activation of the circuits that are specifically dedicated to the control of food intake. As is well known, the use of this model constitutes a valid tool for identifying substances capable of interfering with appetite disorders and can be used in particular for monitoring conditions such as hyperphagia, bulimia and obesity.
# Male CD rats weighing 300-350 g were used.
# The animals were kept in a room with a controlled cycle of light and darkness (6:00-18:00). Before the test, which was carried out at 9:30 corresponding to daytime, the animals were deprived of food for 24 h. At the end of the fasting period, the animals were treated orally with the test compounds (10 mg/kg) in an aqueous vehicle and, immediately after treatment, a pre-weighed amount of food was made available. One hour after treatment, the food consumption was evaluated by weighing the amount of food remaining. The control animals were treated orally with the vehicle (water) used for administering the test compounds.
# rat = details: Eur J Pharmacol, 1989, 164: 445-54; cited from earlier work
# Male CD rats = assay: Anxiogenic activity in the rat (test of social interaction); assay type: in vivo; details: intraperitoneal; evaluated after 20 minutes during a 10-minute period; FIG. 1
# From the text: The anxiogenic activity of the compounds of the present invention was investigated by means of the social interaction test in the rat, which, as is known by a person skilled in the art, represents an experimental model that is predictive of the effects in humans.
# Measurement of the time spent by pairs of animals in interacting with one another and exploring their surroundings (usually an arena consisting of a Perspex container) constitutes a model for verifying the action of substances that influence social behaviour.
# Male CD rats weighing 150-250 g were used.
# The animals were kept in a room with a controlled cycle of light and darkness (6:00-18:00). To promote acclimatization and eliminate responses induced by stress conditions, the rats were handled and were injected daily with the vehicle (water) for the four days preceding administration of the test compounds.
# On the fifth day the animals were treated intraperitoneally with the test compounds and, after 20 minutes, the interaction time (seconds) spent by the animals during a 10-minute period was evaluated.
SMILES,"amount of food consumed, lower than that consumed by the control animals (food-deprived rats)",anxiogenic effects (social interaction time) (rat),interaction time relative to that of the control animals (Male CD rats)
CC1CN(c2cccc(Cl)c2)CCN1 (racemic) [Compound 1],approx. 28%,,
C[C@H]1CN(c2cccc(Cl)c2)CCN1 [Compound 2],75-80%,,
C[C@@H]1CN(c2cccc(Cl)c2)CCN1 [Compound 3],~20%,,
"FC(F)(F)c1cccc(N2CCNCC2)c1 [TFMPP, m-trifluoromethyl phenylpiperazine]",,reduce social interaction time,
"Clc1cccc(N2CCNCC2)c1 [mCPP, m-chlorophenyl-piperazine]",,reduce social interaction time,approx. 50%
